Values quoted from earlier work as cited in US11162142B2, “BCR-ABL1 splice variants and uses thereof” (Quest Diagnostics Investments Incorporated, priority 2010, dated 2021).
Where a name gives a salt, the structure may show the parent alone. Read-outs that look alike come from different tables or passages of the source.

Tests used:
CML = conditions: all stages of CML

SMILES: Cc1ccc(NC(=O)c2ccc(CN3CCN(C)CC3)cc2)cc1Nc1nccc(-c2cccnc2)n1 [imatinib, imatinib mesylate]
- Primary resistance (failure to achieve any hematologic response) rate (patients with CML; accelerated-phase CML): 9%
- Secondary resistance (hematologic recurrence) rate (patients with CML; accelerated-phase CML): 32%
- Primary resistance (failure to achieve any hematologic response) rate (patients with CML; blast-phase CML): 51%
- Secondary resistance (hematologic recurrence) rate (patients with CML; blast-phase CML): 41%
- Primary resistance (failure to achieve any hematologic response) rate (patients with CML; chronic-phase CML): 3%
- Secondary resistance (hematologic recurrence) rate (patients with CML; chronic-phase CML): 22%
- Effectiveness of monotherapy (CML): effective for all stages of CML
